Results: patent US20090288225A1, “Novel Aromatic Acyltransferase Genes” (Aomori Prefecture, priority 2006, published 2009)

Legend:
[1] = tested on: 35-70% ammonium sulfate precipitate fraction of the protein extracted from butterfly pea petals; assay: Examination of substrates: acyltransferase activity with butterfly pea petal protein fraction; type: biochemical, butterfly pea (Clitoria ternatea); conditions: for acyltransferase activity as acyl donor: acyl receptor preternatin C5, specific activity order: sinapoyl, feruloyl, p-coumaroyl, caffeoyl glucose (highest first); for acyltransferase activity as acyl acceptor: acyl donor 1-O-p-coumaroyl-β-D-glucose
Description: (§1) A reaction solution (20 μl) containing 100 mM phosphate buffer (pH 6.5), 0.4 mM anthocyanin (4 μl), 0.5 mM 1-O-acyl-β-D-glucose (4 μl) and an enzyme solution (8 μl) was reacted at 30° C. The reaction was terminated by adding 4 μl of 1M aqueous hydrochloric acid solution. After addition of 24 μl of 5% acetonitrile containing 0.05 M TFA, the reaction solution was filtered with Millex-LH filter (Millipore) and then analyzed by HPLC by feeding a 10 μl aliquot.
(§2) HPLC analysis of anthocyanin acyltransferase reaction products were performed with Develosil ODS-UG-5 column (3.0 i.d.×250 mm; Nomura Chemical) at a column temperature of 35° C. Against an initial solvent that was 0.05 M trifluoroacetate (TFA)-containing 5% acetonitrile (MeCN) aqueous solution, 0.05 M TFA-containing 40% MeCN was added with a linear concentration gradient from 14 to 86% (20 min) and the reaction products were eluted at a flow rate of 0.5 ml/min. The reaction products were detected with PDA and their molecular weights were confirmed by LC-MS/MS.
In order to detect an enzyme activity of transferring an aromatic acyl group to the sugar residue of flavonoids using 1-O-acyl-β-D-glucose as an acyl donor, various types of 1-O-acyl-β-D-glucose and anthocyanin were examined. Briefly, enzyme activities were measured using 35-70% ammonium sulfate precipitate fraction of the protein extracted from butterfly pea petals as an enzyme solution, preternatin C5 as an acyl receptor, and various 1-O-acyl-β-D-glucoses as an acyl donor. […] Specific activity was higher in the following order: 1-O-sinapoyl-β-D-glucose, 1-O-feruloyl-β-D-glucose, 1-O-p-coumaroyl-β-D-glucose and 1-O-caffeoyl-β-D-glucose. Further, enzyme activities were measured using 1-O-p-coumaroyl-β-D-glucose as an acyl donor and various types of anthocyanin as an acyl acceptor.

[2] = Enzyme activity of recombinant CtSCPL1 protein expressed in Baculovirus-Sf9 insect cells; type: biochemical, butterfly pea (Clitoria ternatea)
Description: as §1, §2
Sf9 cells monolayer-cultured in complete Grace medium or Sf900II-SFM serum free medium (Gibco) in 6-well plates (3×10^6 cells) were infected with the recombinant virus at a multiplicity of infection (MOI) of 5-10. […] Enzyme reaction was performed using the thus concentrated protein solution, and the reaction product was analyzed by HPLC and LC-MS. […]

Row | acyltransferase activity as acyl donor [1] | acyltransferase activity as acyl acceptor [1] | Molecule | other results
1 | acyltransferase activity was detected |  | O=C(/C=C/c1ccc(O)c(O)c1)O[C@@H]1O[C@H](CO)[C@@H](O)[C@H](O)[C@H]1O [1-O-caffeoyl-β-D-glucose] | 
2 | acyltransferase activity was detected |  | COc1cc(/C=C/C(=O)O[C@@H]2O[C@H](CO)[C@@H](O)[C@H](O)[C@H]2O)ccc1O [1-O-feruloyl-β-D-glucose] | 
3 | acyltransferase activity was detected |  | COc1cc(/C=C/C(=O)O[C@@H]2O[C@H](CO)[C@@H](O)[C@H](O)[C@H]2O)cc(OC)c1O [1-O-sinapoyl-β-D-glucose] | 

The next lines start with the molecule.

Row | Molecule | acyltransferase activity as acyl donor [1] | acyltransferase activity as acyl acceptor [1] | other results
4 | O=C(/C=C/c1ccc(O)cc1)O[C@@H]1O[C@H](CO)[C@@H](O)[C@H](O)[C@H]1O [1-O-p-coumaroyl-β-D-glucose] | acyltransferase activity was detected |  | 
5 | O=C(O)CC(=O)OCC1OC(Oc2cc3c(O)cc(O)cc3[o+]c2-c2cc(O)c(O)c(OC3OC(CO)C(O)C(O)C3O)c2)C(O)C(O)C1O (stereo not drawn) [delphinidin 3-(6-malonyl)glucoside-3′-glucoside] |  | acyltransferase activity was detected | 
6 | OC[C@H]1O[C@@H](Oc2cc3c(O)cc(O)cc3[o+]c2-c2cc(O[C@@H]3O[C@H](CO)[C@@H](O)[C@H](O)[C@H]3O)c(O)c(O[C@@H]3O[C@H](CO)[C@@H](O)[C@H](O)[C@H]3O)c2)[C@H](O)[C@@H](O)[C@@H]1O [preternatin C5, delphinidin 3,3′,5′-triglucoside] |  | acyltransferase activity was detected | 
7 | O=C(O)CC(=O)OC[C@H]1O[C@@H](Oc2cc3c(O)cc(O)cc3[o+]c2-c2cc(O[C@@H]3O[C@H](CO)[C@@H](O)[C@H](O)[C@H]3O)c(O)c(O[C@@H]3O[C@H](CO)[C@@H](O)[C@H](O)[C@H]3O)c2)[C@H](O)[C@@H](O)[C@@H]1O [ternatin C5, Delphinidin 3-(6-malonyl)glucoside 3′,5′-diglucoside] |  | acyltransferase activity was detected | 
8 | CtSCPL1: butterfly pea SCPL acyltransferase, 487 amino acid residues, SEQ ID NO: 2 (protein, Clitoria ternatea cv. Double Blue; Amino acid sequence of 1-O-acyl-Beta-D-glucose anthocyanin-O-acyltansferase) MAAFSSTHSACGILLLPLVVSSLICFQLASCGTIVEFLPGFDGPLPFVLETGYVGVGEGEDVQVFYYFVESENNPNEDPLMLWLTGGPGCSAFSGLALEIGPLIFKREEYNGGLPNLILRPHSWTKVSSIIFVDLPVSTGFTYARTDAAAQRSDWTLVHHAHEFLRKWLIDHPKFLQNELYIGGDSYSGIPIPVIVQEISQENEKGIQPWINLQGYILGNAITTRREKGYSIPFAHGMALISDELYESLRKNCKGEYLNVDPENVLCSRDIDSYSKATSRISFAHILERTCNSGDIKTSLRRSTIQRHHTKKFLNTNLKLPPLTCRTYANFQCGLWANDDNVRSALHIHKGSIGEWHRCSIRLPFTSDIPNSFEYHVNLSRKGYYRSLIYSGDHDMMVPFLGTQAWIRSLNYSIVDDWRPWNTNGQVAGYTRTYSNRMTYATIKGGGHTAPEFKPEECFAMYSRWISKRPLYENNTMSSYTNLASIL |  |  | 3′AT activity ([2]; substrates preternatin C5 or delphinidin 3-(6-malonyl)glucoside-3′-glucoside and 1-O-feruloyl-β-D-glucose): 3′AT activity was confirmed; 3′AT activity ([2]; substrates ternatin C5 and 1-O-p-coumaroyl-β-D-glucose): 3′AT activity was also recognized
